Activity calls are given as the source filed them. The rule behind the calls is not given here. Positions of bridges follow the written chain, without caps; N, C: chain ends. Non-standard residues stand in square brackets, D forms with d. Residues, ends and D or L forms follow the SMILES beside them. ξ: configuration not given here. *: point of attachment. Biotin = O=C1N[C@H]2[C@H](CS[C@H]2CCCCC(=O)*)N1; R5 = C=CCCC[C@@](C)(N)C(=O)O; ξIle = CC[C@H](C)C(N)C(=O)O; Ahx = NCCCCCC(=O)O
How the values were obtained:
[1] = target: T1, Transcription factor MafG (Homo sapiens, UniProt O15525); experiment: Binding affinity to human His-tagged MafG expressed in Escherichia coli Rosetta (DE3) by immunoprecipitation assay
[2] = target: T1, Transcription factor MafG; experiment: Binding affinity to human His-tagged MafG at 1 uM incubated for 10 mins with 188 to 3000 nM protein by SPR analysis
[3] = target: T2, Nuclear factor erythroid 2-related factor 2 (Homo sapiens) (UniProt Q16236); experiment: Inhibition of human Nrf2 in HEK-293T cells expressing NQO1-ARE-firefly luciferase and TK-Renilla luciferase at 50 uM incubated for 16 hrs by Dual-Luciferase reporter based luminometer analysis; type: cell-based
T2 sequence (whole entry): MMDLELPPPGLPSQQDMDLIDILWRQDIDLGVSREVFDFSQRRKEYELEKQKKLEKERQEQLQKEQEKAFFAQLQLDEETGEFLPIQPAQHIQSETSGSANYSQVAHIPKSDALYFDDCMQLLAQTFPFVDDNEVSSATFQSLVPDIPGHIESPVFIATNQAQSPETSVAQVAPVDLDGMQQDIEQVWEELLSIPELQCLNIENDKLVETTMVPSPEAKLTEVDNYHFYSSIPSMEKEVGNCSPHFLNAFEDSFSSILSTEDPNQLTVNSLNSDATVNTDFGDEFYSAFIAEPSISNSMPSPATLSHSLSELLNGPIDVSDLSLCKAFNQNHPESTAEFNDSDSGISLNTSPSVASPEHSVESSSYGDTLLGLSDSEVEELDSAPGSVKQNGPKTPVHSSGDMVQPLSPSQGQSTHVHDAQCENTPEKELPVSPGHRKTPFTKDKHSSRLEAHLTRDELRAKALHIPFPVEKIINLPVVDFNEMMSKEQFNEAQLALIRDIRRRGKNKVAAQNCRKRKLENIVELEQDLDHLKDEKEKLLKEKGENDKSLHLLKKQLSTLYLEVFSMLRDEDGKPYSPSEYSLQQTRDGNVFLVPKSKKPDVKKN

Albumin = Albumin (Bos taurus, UniProt P02769); experiment: Binding affinity to bovine serum albumin at 1 uM by SPR analysis; conditions: cattle
[4] = target: T1, Transcription factor MafG; experiment: Binding affinity to human His-tagged MafG assessed as dissociation constant incubated for 10 mins by SPR analysis
[5] = target: T1, Transcription factor MafG; experiment: Binding affinity to human His-tagged MafG expressed in Escherichia coli Rosetta (DE3) incubated in presence of unlabeled peptide by immunoprecipitation assay
[6] = Stability of compound assessed as proteinase K (unknown origin) mediated compound degradation at 55 uM measured upto 24 hrs by LC/MS analysis; type: ADME; conditions: human
[7] = target: T2, Nuclear factor erythroid 2-related factor 2 (Homo sapiens); experiment: Inhibition of human Nrf2 in HEK-293T cells expressing ARE-firefly luciferase and TK-Renilla luciferase at 0 to 100 uM incubated for 16 hrs by Dual-Luciferase reporter based luminometer analysis; type: cell-based; conditions: dose 0-100 µM
[8] = Stability of compound assessed as proteinase K (unknown origin) mediated compound degradation at 55 uM measured after 40 mins by LC/MS analysis; type: ADME; conditions: human

T1 sequence (O15525 whole entry): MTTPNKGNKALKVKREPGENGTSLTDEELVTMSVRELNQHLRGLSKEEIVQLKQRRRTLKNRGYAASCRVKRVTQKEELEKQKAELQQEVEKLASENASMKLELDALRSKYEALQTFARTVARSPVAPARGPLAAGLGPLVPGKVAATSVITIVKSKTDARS
Albumin, sequence (P02769 whole entry): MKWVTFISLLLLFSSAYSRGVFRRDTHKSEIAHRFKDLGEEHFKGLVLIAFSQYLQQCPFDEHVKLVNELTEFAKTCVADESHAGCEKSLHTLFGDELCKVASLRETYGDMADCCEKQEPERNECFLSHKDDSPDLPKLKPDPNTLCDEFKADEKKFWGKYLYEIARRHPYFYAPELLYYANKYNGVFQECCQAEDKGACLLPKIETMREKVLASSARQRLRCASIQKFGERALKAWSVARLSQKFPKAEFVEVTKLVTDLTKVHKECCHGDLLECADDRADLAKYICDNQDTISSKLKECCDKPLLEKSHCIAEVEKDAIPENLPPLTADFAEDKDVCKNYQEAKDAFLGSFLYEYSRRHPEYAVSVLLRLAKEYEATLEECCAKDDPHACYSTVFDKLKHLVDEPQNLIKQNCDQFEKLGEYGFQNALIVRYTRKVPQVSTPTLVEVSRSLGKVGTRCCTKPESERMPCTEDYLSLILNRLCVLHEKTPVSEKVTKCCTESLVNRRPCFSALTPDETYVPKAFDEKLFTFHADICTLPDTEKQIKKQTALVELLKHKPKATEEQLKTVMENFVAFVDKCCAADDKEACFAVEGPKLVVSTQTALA

Row | Activity [1] | inhibition [3] | Compound | other results
1 | inactive |  | CC(C)C[C@H](NC(=O)[C@H](CCCCN)NC(=O)[C@H](CCC(=O)O)NC(=O)[C@H](CCCCN)NC(=O)[C@H](CCC(=O)O)NC(=O)[C@H](CC(=O)O)NC(=O)CCCCCNC(=O)CCCC[C@@H]1SC[C@@H]2NC(=O)N[C@@H]21)C(=O)N[C@]1(C)CCC/C=C\CCC[C@](C)(C(=O)N[C@@H](CCC(=O)O)C(=O)N[C@@H](CC(N)=O)C(=O)N[C@@H](CC(=O)O)C(=O)N[C@@H](CCCCN)C(=O)N[C@@H](CO)C(N)=O)NC(=O)[C@H](CCCCN)NC(=O)[C@H](CCC(=O)O)NC(=O)[C@H](CCCCN)NC1=O ({Biotin-Ahx}-DEKEKL[R5]KEK[R5]ENDKS-NH2; staple (Z) 7-11) | Activity [2]: inactive
2 |  | inactive | Ac-DEKEKLLKEKGENDKS-NH2 | 
3 | Active |  | CC[C@H](C)C(NC(=O)CCCCCNC(=O)CCCC[C@@H]1SC[C@@H]2NC(=O)N[C@@H]21)C(=O)N[C@H](C(=O)N[C@@H](CCC(=O)O)C(=O)N[C@@H](CC(C)C)C(=O)N[C@@H](CCC(=O)O)C(=O)N[C@]1(C)CCC/C=C\CCC[C@](C)(C(=O)N[C@@H](CC(C)C)C(=O)N[C@@H](CCCCN)C(=O)N[C@@H](CC(=O)O)C(=O)N[C@@H](CCC(=O)O)C(=O)N[C@@H](CCCCN)C(=O)N[C@@H](CCC(=O)O)C(N)=O)NC(=O)[C@H](CC(=O)O)NC(=O)[C@H](CC(C)C)NC(=O)[C@H](CC(=O)O)NC1=O)C(C)C (stereo partly specified) ({Biotin-Ahx}-[ξIle]VELE[R5]DLD[R5]LKDEKE-NH2; staple (Z) 6-10) | Activity (Albumin): Not Active; Kd [4]: 337 nM; Activity [5]: Active
4 |  | inactive | CC(=O)N[C@@H](CC(=O)O)C(=O)N[C@@H](CCC(=O)O)C(=O)N[C@@H](CCCCN)C(=O)N[C@@H](CCC(=O)O)C(=O)N[C@@H](CCCCN)C(=O)N[C@@H](CC(C)C)C(=O)N[C@]1(C)CCC/C=C\CCC[C@](C)(C(=O)N[C@@H](CCC(=O)O)C(=O)N[C@@H](CC(N)=O)C(=O)N[C@@H](CC(=O)O)C(=O)N[C@@H](CCCCN)C(=O)N[C@@H](CO)C(N)=O)NC(=O)[C@H](CCCCN)NC(=O)[C@H](CCC(=O)O)NC(=O)[C@H](CCCCN)NC1=O (Ac-DEKEKL[R5]KEK[R5]ENDKS-NH2; staple (Z) 7-11) | Stability [6]: Stable
5 |  | inactive | Ac-DLDHLKDEKEKLLKEK-NH2 | 
6 |  | inactive | Ac-IVELEQDLDHLKDEKE-NH2 | Stability [6]: Unstable
7 |  |  | CC(=O)N[C@@H](C)C(=O)N[C@H](C(=O)N[C@@H](CCC(=O)O)C(=O)N[C@@H](C)C(=O)N[C@@H](CCC(=O)O)C(=O)N[C@]1(C)CCC/C=C\CCC[C@](C)(C(=O)N[C@@H](C)C(=O)N[C@@H](CCCCN)C(=O)N[C@@H](CC(=O)O)C(=O)N[C@@H](CCC(=O)O)C(=O)N[C@@H](C)C(=O)N[C@@H](CCC(=O)O)C(N)=O)NC(=O)[C@H](CC(=O)O)NC(=O)[C@H](C)NC(=O)[C@H](CC(=O)O)NC1=O)C(C)C (Ac-AVEAE[R5]DAD[R5]AKDEAE-NH2; staple (Z) 6-10) | inhibition [7]: inactive
8 |  | inactive | CC(=O)N[C@@H](CC(=O)O)C(=O)N[C@@H](CC(C)C)C(=O)N[C@@H](CC(=O)O)C(=O)N[C@@H](Cc1c[nH]cn1)C(=O)N[C@@H](CC(C)C)C(=O)N[C@]1(C)CCC/C=C\CCC[C@](C)(C(=O)N[C@@H](CCCCN)C(=O)N[C@@H](CC(C)C)C(=O)N[C@@H](CC(C)C)C(=O)N[C@@H](CCCCN)C(=O)N[C@@H](CCC(=O)O)C(=O)N[C@@H](CCCCN)C(N)=O)NC(=O)[C@H](CCCCN)NC(=O)[C@H](CCC(=O)O)NC(=O)[C@H](CC(=O)O)NC1=O (Ac-DLDHL[R5]DEK[R5]KLLKEK-NH2; staple (Z) 6-10) | Stability [8]: Unstable
9 | inactive |  | CC(C)C[C@H](NC(=O)[C@H](CC(=O)O)NC(=O)CCCCCNC(=O)CCCC[C@@H]1SC[C@@H]2NC(=O)N[C@@H]21)C(=O)N[C@@H](CC(=O)O)C(=O)N[C@@H](Cc1c[nH]cn1)C(=O)N[C@@H](CC(C)C)C(=O)N[C@]1(C)CCC/C=C\CCC[C@](C)(C(=O)N[C@@H](CCCCN)C(=O)N[C@@H](CC(C)C)C(=O)N[C@@H](CC(C)C)C(=O)N[C@@H](CCCCN)C(=O)N[C@@H](CCC(=O)O)C(=O)N[C@@H](CCCCN)C(N)=O)NC(=O)[C@H](CCCCN)NC(=O)[C@H](CCC(=O)O)NC(=O)[C@H](CC(=O)O)NC1=O ({Biotin-Ahx}-DLDHL[R5]DEK[R5]KLLKEK-NH2; staple (Z) 6-10) | 

— ChEMBL document CHEMBL5338753, “Stapled Peptides as Direct Inhibitors of Nrf2-sMAF Transcription Factors” (J Med Chem, 2023)
